Drawing on PMC7556697 (ACS chemical biology, 2020), this text covers IC50 for one substance.

The assay addresses NRAS (Homo sapiens, UniProt P01111, Q61R). The assay can be described thus: acyl-resin assisted capture. The class given is cell-based.

Turning to C8 alkyl cysteine [compound 1], half-maximal inhibition (IC50) required 7 µM.

Broadly, the IC50 is the concentration needed to halve the response being measured.
